Experimental data from patent US8741944B2, “Anti-infective agents against intracellular pathogens” (priority 2007, dated 2014).
Like-named read-outs stand apart in the source and are kept apart here.

Experiments:
PC-3 cells [1] = experiment: Cell viability analysis, MTT assay in PC-3 cells; assay type: cell-based, human; settings: inducing apoptotic death in PC-3 cells / PC-3 cell viability; read-out: IC50 PC-3
Description: Cell Culture PC-3 (p53−/−) human androgen-non-responsive prostate cancer cells were purchased from the American […] (Manassas, Va.). Cells were cultured in RPMI 1640 medium (Gibco, Grand Island, N.Y.) supplemented with 10% fetal bovine serum (FBS; Gibco) at 37° C. in a humidified incubator containing 5% CO2.
Controls received DMSO vehicle at a concentration equal to that in drug-treated cells. The medium was removed, replaced by 200 μl of 0.5 mg/ml of MTT in 10% FBS-containing RPMI-1640 medium, and cells were incubated in the CO2 incubator at 37° C. for 2 h. Supernatants were removed from the wells, and the reduced MTT dye was solubilized in 200 μL/well DMSO. Absorbance at 570 nm was determined on a plate reader.

Akt = experiment: Direct inhibition of immunoprecipitated Akt kinase activity; assay type: biochemical, human
COX-2 = COX-2 (Homo sapiens (Human), UniProt P35354); experiment: COX-2 inhibitory activity; assay type: biochemical; settings: concentrations up to 50 μM
PC-3 cells [2] = experiment: Apoptosis analysis in PC-3 cells (DNA fragmentation ELISA, PARP cleavage); assay type: cell-based, human; settings: 1% FBS-containing medium
Description: Apoptosis analysis Two methods were used to assess drug-induced apoptotic cell death: detection of DNA fragmentation by the Cell Death Detection ELISA kit (Roche Diagnostics. Mannheim, Germany) and Western blot analysis of poly-(ADP-ribose)polymerase (PARP) cleavage. […] In brief, 4×10^5 PC-3 cells were cultured in a T-25 flask for 24 h before treatment. Cells were treated with the DMSO vehicle or the test agent at the indicated concentrations for 6-24 h, collected, and cell lysates equivalent to 2×10^3 PC-3 cells were used in the ELISA. For the PARP cleavage assay, drug-treated cells were collected 4-8 h post-treatment, washed with ice-cold PBS, and resuspended in lysis buffer containing 20 mM Tris-HCl, pH 8, 137 mM NaCl, 1 mM CaCl2, 10% glycerol, 1% Nonidet P-40, 0.5% deoxycholate, 0.1% SDS, 100 μM 4-(2-aminoethyl)benzenesulfonyl fluoride, leupeptin at 10 μg/mL, and aprotinin at 10 μg/mL. Soluble cell lysates were collected after centrifugation at 10,000 g for 5 min. Equivalent amounts of proteins (60-100 μg) from each lysate were resolved in 8% SDS-polyacrylamide gels. Bands were transferred to nitrocellulose membranes, and analyzed by immunoblotting with anti-PARP antibody.

PC-3 (Prostate Cancer) = experiment: NCI DTP tumor cell line screen (SRB), PC-3
Description: (§1) For a typical screening experiment, cells are inoculated into 96 well microtiter plates in 100 μL at plating densities ranging from 5,000 to 40,000 cells/well depending on the doubling time of individual cell lines. After cell inoculation, the microtiter plates are incubated at 37° C., 5% CO2, 95% air and 100% relative humidity for 24 h prior to addition of experimental drugs.
(§2) After 24 h, two plates of each cell line are fixed in situ with TCA, to represent a measurement of the cell population for each cell line at the time of drug addition (Tz). Experimental drugs are solubilized in dimethyl sulfoxide at 400-fold the desired final maximum test concentration and stored frozen prior to use. At the time of drug addition, an aliquot of frozen concentrate is thawed and diluted to twice the desired final maximum test concentration with complete medium containing 50 μg/ml gentamicin. Additional four, 10-fold or ½ log serial dilutions are made to provide a total of five drug concentrations plus control. Aliquots of 100 μl of these different drug dilutions are added to the appropriate microtiter wells already containing 100 μl of medium, resulting in the required final drug concentrations.
(§3) Following drug addition, the plates are incubated for an additional 48 h at 37° C., 5% CO2, 95% air, and 100% relative humidity. For adherent cells, the assay is terminated by the addition of cold TCA. Cells are fixed in situ by the gentle addition of 50 μl of cold 50% (w/v) TCA (final concentration, 10% TCA) and incubated for 60 minutes at 4° C. The supernatant is discarded, and the plates are washed five times with tap water and air dried. Sulforhodamine B (SRB) solution (1001) at 0.4% (w/v) in 1% acetic acid is added to each well, and plates are incubated for 10 minutes at room temperature. After staining, unbound dye is removed by washing five times with 1% acetic acid and the plates are air dried. Bound stain is subsequently solubilized with 10 mM trizma base, and the absorbance is read on an automated plate reader at a wavelength of 515 nm. For suspension cells, the methodology is the same except that the assay is terminated by fixing settled cells at the bottom of the wells by gently adding 50 μl of 80% TCA (final concentration, 16% TCA). Using the seven absorbance measurements [time zero, (Tz), control growth, (C), and test growth in the presence of drug at the five concentration levels (Ti)], the percentage growth is calculated at each of the drug concentrations levels. Percentage growth inhibition is calculated as: [(Ti−Tz)/(C−Tz)]×100 for concentrations for which Ti>/=Tz [(Ti−Tz)/Tz]×100 for concentrations for which Ti<Tz
(§4) Three dose response parameters are calculated for each experimental agent. […] The drug concentration resulting in total growth inhibition (TGI) is calculated from Ti=Tz. […] Values are calculated for each of these three parameters if the level of activity is reached; however, if the effect is not reached or is exceeded, the value for that parameter is expressed as greater or less than the maximum or minimum concentration tested.

U251 (CNS Cancer) = experiment: NCI DTP tumor cell line screen (SRB), U251
Description: as §1, §2, §3, §4

SF-268 (CNS Cancer) = experiment: NCI DTP tumor cell line screen (SRB), SF-268
Description: as §1, §2, §3, §4

SF-295 (CNS Cancer) = experiment: NCI DTP tumor cell line screen (SRB), SF-295
Description: as §1, §2, §3, §4

SNB-19 (CNS Cancer) = experiment: NCI DTP tumor cell line screen (SRB), SNB-19
Description: as §1, §2, §3, §4

BT-549 (Breast Cancer) = experiment: NCI DTP tumor cell line screen (SRB), BT-549
Description: as §1, §2, §3, §4

[3] = tested on: NCI-H226 (Non-Small Cell Lung Cancer)
Description: as §1, §2, §3, §4

COX-2, sequence (P35354 whole entry, looked up, the tested form may be a part): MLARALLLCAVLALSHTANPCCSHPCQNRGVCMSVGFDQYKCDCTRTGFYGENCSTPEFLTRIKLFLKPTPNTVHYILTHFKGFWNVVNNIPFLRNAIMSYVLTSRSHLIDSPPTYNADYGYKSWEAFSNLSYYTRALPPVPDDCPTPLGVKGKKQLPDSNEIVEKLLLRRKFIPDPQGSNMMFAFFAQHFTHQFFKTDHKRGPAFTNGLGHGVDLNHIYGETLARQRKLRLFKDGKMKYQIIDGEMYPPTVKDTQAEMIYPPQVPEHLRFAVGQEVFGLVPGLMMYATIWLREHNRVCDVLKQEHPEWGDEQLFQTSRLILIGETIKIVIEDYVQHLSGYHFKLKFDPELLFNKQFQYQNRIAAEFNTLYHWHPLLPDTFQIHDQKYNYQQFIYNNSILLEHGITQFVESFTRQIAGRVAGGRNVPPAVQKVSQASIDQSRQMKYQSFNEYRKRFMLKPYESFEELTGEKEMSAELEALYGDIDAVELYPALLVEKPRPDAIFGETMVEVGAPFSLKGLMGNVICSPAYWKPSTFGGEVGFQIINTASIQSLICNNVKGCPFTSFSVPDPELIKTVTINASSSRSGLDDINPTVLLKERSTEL

4-[5-(2-Phenanthrenyl)-3-(trifluoromethyl)-1H-pyrazol-1-yl]-phenyl -guanidine [Compound 71]
IC50 (PC-3 cells [1]): 3000 nM
direct inhibitory effect on immunoprecipitated Akt kinase activity (Akt): no appreciable direct inhibition
COX-2 inhibitory activity (COX-2): nor was any measurable COX-2 inhibitory activity detected
apoptotic death in PC-3 cells (DNA fragmentation and PARP cleavage) (PC-3 cells [2]): induced apoptotic death
GI50 (PC-3 (Prostate Cancer)): 1380 nM
TGI (PC-3 (Prostate Cancer)): 2.67E−06
Percent Growth (PC-3 (Prostate Cancer); Log10 Concentration −5.0): −100%
Percent Growth (PC-3 (Prostate Cancer); Log10 Concentration −6.0): 75%
Percent Growth (PC-3 (Prostate Cancer); Log10 Concentration −7.0): 73%
Percent Growth (PC-3 (Prostate Cancer); Log10 Concentration −8.0): 75%

NCC(=O)Nc1ccc(-n2nc(C(F)(F)F)cc2-c2ccc3c(ccc4ccccc43)c2)cc1 [Compound 70, 2-Amino-N-{4-[5-(2-phenanthrenyl)-3-(trifluoromethyl)-1H-pyrazol-1-yl]-phenyl}-acetamide]
TGI (U251 (CNS Cancer)): 2.64E−06
Mean Optical Densities (U251 (CNS Cancer); Log10 Concentration −4.0): 0.320
Mean Optical Densities (U251 (CNS Cancer); Log10 Concentration −5.0): 0.144
Percent Growth (U251 (CNS Cancer); Log10 Concentration −5.0): −63%
Mean Optical Densities (U251 (CNS Cancer); Log10 Concentration −6.0): 0.810
Percent Growth (U251 (CNS Cancer); Log10 Concentration −6.0): 46%
Mean Optical Densities (U251 (CNS Cancer); Log10 Concentration −7.0): 1.139
Percent Growth (U251 (CNS Cancer); Log10 Concentration −7.0): 82%
Mean Optical Densities (U251 (CNS Cancer); Log10 Concentration −8.0): 1.298
Percent Growth (U251 (CNS Cancer); Log10 Concentration −8.0): 100%
TGI (PC-3 (Prostate Cancer)): 2.38E−06
Mean Optical Densities (PC-3 (Prostate Cancer); Log10 Concentration −4.0): 0.108
Mean Optical Densities (PC-3 (Prostate Cancer); Log10 Concentration −5.0): 0.055
Percent Growth (PC-3 (Prostate Cancer); Log10 Concentration −5.0): −77%
Mean Optical Densities (PC-3 (Prostate Cancer); Log10 Concentration −6.0): 0.593
Percent Growth (PC-3 (Prostate Cancer); Log10 Concentration −6.0): 47%
Mean Optical Densities (PC-3 (Prostate Cancer); Log10 Concentration −7.0): 0.763
Percent Growth (PC-3 (Prostate Cancer); Log10 Concentration −7.0): 69%
Mean Optical Densities (PC-3 (Prostate Cancer); Log10 Concentration −8.0): 0.910
Percent Growth (PC-3 (Prostate Cancer); Log10 Concentration −8.0): 89%
TGI (SF-268 (CNS Cancer)): 4.16E−06
Mean Optical Densities (SF-268 (CNS Cancer); Log10 Concentration −4.0): 0.280
Mean Optical Densities (SF-268 (CNS Cancer); Log10 Concentration −5.0): 0.252
Percent Growth (SF-268 (CNS Cancer); Log10 Concentration −5.0): −33%
Mean Optical Densities (SF-268 (CNS Cancer); Log10 Concentration −6.0): 0.789
Percent Growth (SF-268 (CNS Cancer); Log10 Concentration −6.0): 54%
Mean Optical Densities (SF-268 (CNS Cancer); Log10 Concentration −7.0): 0.930
Percent Growth (SF-268 (CNS Cancer); Log10 Concentration −7.0): 72%
Mean Optical Densities (SF-268 (CNS Cancer); Log10 Concentration −8.0): 1.016
Percent Growth (SF-268 (CNS Cancer); Log10 Concentration −8.0): 84%
TGI (SF-295 (CNS Cancer)): 3.71E−06
Mean Optical Densities (SF-295 (CNS Cancer); Log10 Concentration −4.0): 0.287
Mean Optical Densities (SF-295 (CNS Cancer); Log10 Concentration −5.0): 0.225
Percent Growth (SF-295 (CNS Cancer); Log10 Concentration −5.0): −47%
Mean Optical Densities (SF-295 (CNS Cancer); Log10 Concentration −6.0): 0.915
Percent Growth (SF-295 (CNS Cancer); Log10 Concentration −6.0): 62%
Mean Optical Densities (SF-295 (CNS Cancer); Log10 Concentration −7.0): 1.190
Percent Growth (SF-295 (CNS Cancer); Log10 Concentration −7.0): 96%
Mean Optical Densities (SF-295 (CNS Cancer); Log10 Concentration −8.0): 1.173
Percent Growth (SF-295 (CNS Cancer); Log10 Concentration −8.0): 94%
TGI (SNB-19 (CNS Cancer)): 3.15E−06
Mean Optical Densities (SNB-19 (CNS Cancer); Log10 Concentration −4.0): 0.324
Mean Optical Densities (SNB-19 (CNS Cancer); Log10 Concentration −5.0): 0.219
Percent Growth (SNB-19 (CNS Cancer); Log10 Concentration −5.0): −59%
Mean Optical Densities (SNB-19 (CNS Cancer); Log10 Concentration −6.0): 1.230
Percent Growth (SNB-19 (CNS Cancer); Log10 Concentration −6.0): 59%
Mean Optical Densities (SNB-19 (CNS Cancer); Log10 Concentration −7.0): 1.655
Percent Growth (SNB-19 (CNS Cancer); Log10 Concentration −7.0): 94%
Mean Optical Densities (SNB-19 (CNS Cancer); Log10 Concentration −8.0): 1.562
Percent Growth (SNB-19 (CNS Cancer); Log10 Concentration −8.0): 87%
TGI (BT-549 (Breast Cancer)): 2.95E−06
Mean Optical Densities (BT-549 (Breast Cancer); Log10 Concentration −5.0): 0.143
Percent Growth (BT-549 (Breast Cancer); Log10 Concentration −5.0): −71%
Mean Optical Densities (BT-549 (Breast Cancer); Log10 Concentration −6.0): 0.785
Percent Growth (BT-549 (Breast Cancer); Log10 Concentration −6.0): 63%
Mean Optical Densities (BT-549 (Breast Cancer); Log10 Concentration −7.0): 0.891
Percent Growth (BT-549 (Breast Cancer); Log10 Concentration −7.0): 86%
Mean Optical Densities (BT-549 (Breast Cancer); Log10 Concentration −8.0): 0.912
Percent Growth (BT-549 (Breast Cancer); Log10 Concentration −8.0): 90%
TGI [3]: 3.21E−06
Mean Optical Densities ([3]; Log10 Concentration −4.0): 0.614
Mean Optical Densities ([3]; Log10 Concentration −5.0): 0.505
Percent Growth ([3]; Log10 Concentration −5.0): −58%
Mean Optical Densities ([3]; Log10 Concentration −6.0): 1.429
Percent Growth ([3]; Log10 Concentration −6.0): 59%
Mean Optical Densities ([3]; Log10 Concentration −7.0): 1.586
Percent Growth ([3]; Log10 Concentration −7.0): 98%
Mean Optical Densities ([3]; Log10 Concentration −8.0): 1.593
Percent Growth ([3]; Log10 Concentration −8.0): 100%
